Consider 24 compounds from PubChem BioAssay AID330 (DTP/NCI, 2004).

The test system of this test is P388 leukemia ip, CD2F1 mice, survival T/C. Put plainly: NCI In Vivo Anticancer Drug Screen. Data for tumor model P388 Leukemia (intraperitoneal) in CD2F1 (CDF1) mice. The following applies: endpoint: median survival time, higher = longer survival. The method in brief:
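Mice carrying the transplanted tumor received test compound or vehicle. Survival was recorded in each group, and the value is the treated-group measurement divided by that of the vehicle-treated control group.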

The mark [1] stands for this setting: dose: 50.0 mg/kg/injection, schedule: Q01DX009 (ip), vehicle: saline with Tween-80.
The mark [2] stands for this setting: dose: 100.0 mg/kg/injection, schedule: Q01DX009 (ip), vehicle: saline with Tween-80.
[3] abbreviates: dose: 50.0 mg/kg/injection, schedule: Q01DX005 (ip), vehicle: Klucel (hydroxypropylcellulose) (HPC).
Setting [4] is: dose: 100.0 mg/kg/injection, schedule: Q01DX005 (ip), vehicle: Klucel (hydroxypropylcellulose) (HPC).
The mark [5] stands for this setting: dose: 200.0 mg/kg/injection, schedule: Q01DX005 (ip), vehicle: Klucel (hydroxypropylcellulose) (HPC).
Setting [6] is: dose: 200.0 mg/kg/injection, schedule: Q01DX009 (ip), vehicle: saline.
[7] abbreviates: dose: 60.0 mg/kg/injection, schedule: Q01DX005 (ip), vehicle: saline with Tween-80.
The mark [8] stands for this setting: dose: 60.0 mg/kg/injection, schedule: Q01DX005 (ip), vehicle: saline.
[9] abbreviates: dose: 120.0 mg/kg/injection, schedule: Q01DX005 (ip), vehicle: saline.
Setting [10] is: dose: 240.0 mg/kg/injection, schedule: Q01DX005 (ip), vehicle: saline.
Where [11] appears, read: dose: 50.0 mg/kg/injection, schedule: Q01DX009 (ip), vehicle: saline.
The mark [12] stands for this setting: dose: 100.0 mg/kg/injection, schedule: Q01DX009 (ip), vehicle: saline.
[13] abbreviates: dose: 12.5 mg/kg/injection, schedule: Q01DX009 (ip), vehicle: saline with Tween-80.
Setting [14] is: dose: 25.0 mg/kg/injection, schedule: Q01DX009 (ip), vehicle: saline with Tween-80.
The mark [15] stands for this setting: dose: 100.0 mg/kg/injection, schedule: Q01DX001 (ip), vehicle: saline with Tween-80.
Setting [16] is: dose: 120.0 mg/kg/injection, schedule: Q01DX005 (ip), vehicle: saline with Tween-80.
Where [17] appears, read: dose: 240.0 mg/kg/injection, schedule: Q01DX005 (ip), vehicle: saline with Tween-80.
Where [18] appears, read: dose: 100.0 mg/kg/injection, schedule: Q01DX001 (ip), vehicle: Klucel (hydroxypropylcellulose) (HPC).

Structures are written as SMILES. Values joined by “and” are separate entries in the source; they are usually repeats but may differ in a detail not shown here. Identical values can stand only once. Inconclusive results and toxic doses are left out.

In the case of `Nc1cc(S(N)(=O)=O)ccc1SSc1ccc(S(N)(=O)=O)cc1N`, the T/C (dose: 50.0 mg/kg/injection, schedule: Q01DX009 (ip), vehicle: Klucel (hydroxypropylcellulose) (HPC)) was 94 % of control; the T/C under setting [1] was 105 % of control; the T/C (dose: 100.0 mg/kg/injection, schedule: Q01DX009 (ip), vehicle: Klucel (hydroxypropylcellulose) (HPC)) was 112 % of control; the T/C under setting [2] is 109 % of control; the T/C (dose: 200.0 mg/kg/injection, schedule: Q01DX009 (ip), vehicle: Klucel (hydroxypropylcellulose) (HPC)) was 112 % of control; the T/C (dose: 200.0 mg/kg/injection, schedule: Q01DX009 (ip), vehicle: saline with Tween-80) was 110 % of control. Besides, the T/C is 121 % of control (dose: 400.0 mg/kg/injection, schedule: Q01DX009 (ip), vehicle: Klucel (hydroxypropylcellulose) (HPC)) and 117 % of control (dose: 400.0 mg/kg/injection, schedule: Q01DX009 (ip), vehicle: saline with Tween-80).

For the compound `CC(C)CC(NCCC#N)C(=O)O` (configuration not stated), the T/C under setting [3] is 105 % of control, the T/C under setting [4] was 105 % of control and the T/C under setting [5] was 108 % of control.

On to `CCN1CCN(CCCl)C1=O`, for which, under setting [6], the T/C was 160 % of control.

On to `Cn1c2c(c(=O)c3cc(O)ccc31)CC(C(C)(C)O)O2` (configuration not stated), for which the T/C is, setting by setting: under setting [3], 104 % of control; under setting [4], 105 % of control; under setting [5], 104 % of control.

Turning to `N=C(N)c1ccc(NN=Nc2cccc3c2Oc2ccccc2O3)cc1`, the T/C runs as follows: (dose: 50.0 mg/kg/injection, schedule: Q01DX005 (ip), vehicle: saline with Tween-80) 106 % of control; (dose: 100.0 mg/kg/injection, schedule: Q01DX005 (ip), vehicle: saline with Tween-80) 103 % of control; (dose: 200.0 mg/kg/injection, schedule: Q01DX005 (ip), vehicle: saline with Tween-80) 95 % of control.

Regarding `O=C(Nc1ccc(Cl)cc1)Nc1nnc(-c2ccc(F)cc2)o1`, the T/C was 100 % of control (dose: 15.0 mg/kg/injection, schedule: Q01DX005 (ip), vehicle: saline with Tween-80); 91 % of control (dose: 30.0 mg/kg/injection, schedule: Q01DX005 (ip), vehicle: saline with Tween-80); 90 % of control under setting [7].

Regarding `O=c1c2ccccc2nnn1OCc1ccccc1`, the T/C (dose: 12.5 mg/kg/injection, schedule: Q01DX009 (ip), vehicle: distilled water + Tween-80) was 100 % of control; the T/C (dose: 25.0 mg/kg/injection, schedule: Q01DX009 (ip), vehicle: distilled water + Tween-80) was 103 % of control; the T/C (dose: 50.0 mg/kg/injection, schedule: Q01DX009 (ip), vehicle: distilled water + Tween-80) is 97 % of control; the T/C (dose: 100.0 mg/kg/injection, schedule: Q01DX009 (ip), vehicle: distilled water + Tween-80) was 101 % of control; the T/C (dose: 200.0 mg/kg/injection, schedule: Q01DX009 (ip), vehicle: distilled water + Tween-80) was 103 % of control.

On to `CCN(CC)c1cc(=O)nc2ccccn12`, for which the T/C reads like this: under setting [8], 100 % of control; under setting [9], 99 % of control; under setting [10], 106 % of control.

Regarding `CC/C(=N/NS(=O)(=O)c1ccc(C)cc1)c1ccc(Cl)cc1`, the T/C by setting is: under setting [11], 97 % of control; under setting [12], 92 % of control; under setting [6], 99 % of control.

With `O=C(C(Br)C(Br)c1ccccc1)C(Br)C(Br)c1ccccc1` (configuration not stated), the T/C was 104 % of control (dose: 100.0 mg/kg/injection, schedule: Q04DX003 (ip), vehicle: saline sonified); 100 % of control (dose: 200.0 mg/kg/injection, schedule: Q04DX003 (ip), vehicle: saline sonified); 95 % of control (dose: 400.0 mg/kg/injection, schedule: Q04DX003 (ip), vehicle: saline sonified).

With `O=C1CSC=C(c2ccccc2)O1`, the T/C by setting is: under setting [13], 108 % of control; under setting [14], 110 % of control; under setting [1], 109 % of control; under setting [2], 104 % of control.

Turning to `C=C(NC(C)=O)C(=O)O`, the T/C was 103 % of control (dose: 6.25 mg/kg/injection, schedule: Q01DX009 (ip), vehicle: saline with Tween-80); 101 % of control and 86 % of control under setting [13]; 104 % of control (dose: 12.5 mg/kg/injection, schedule: Q04DX003 (ip), vehicle: saline with Tween-80); 108 % of control under setting [14]; 103 % of control (dose: 25.0 mg/kg/injection, schedule: Q04DX003 (ip), vehicle: saline with Tween-80); 101 % of control (dose: 50.0 mg/kg/injection, schedule: Q04DX003 (ip), vehicle: saline with Tween-80). Also, under setting [15], the T/C was 101 % of control.

Regarding `COc1nc(NC2OC(CO)C(O)C(O)C2O)c(Cl)c(=O)n1C` (configuration not stated), the T/C by setting is: under setting [7], 94 % of control; under setting [16], 93 % of control; under setting [17], 97 % of control.

Consider `CC(C)(C)C1(C(C)(C)C)CO1`, for which the T/C by setting is: (dose: 6.25 mg/kg/injection, schedule: Q01DX009 (ip), vehicle: saline) 98 % of control; (dose: 12.5 mg/kg/injection, schedule: Q01DX009 (ip), vehicle: saline) 96 % of control.

As to `Cc1ccc(S(=O)(=O)C(C#N)CCC(=O)c2ccc(Cl)cc2)cc1` (configuration not stated), the T/C is 107 % of control under setting [3], 106 % of control under setting [4] and 105 % of control under setting [5].

Consider `O=c1c(N2CCOCC2)c(N2CCOCC2)c1=O`, for which the T/C under setting [15] is 100 % of control; the T/C (dose: 200.0 mg/kg/injection, schedule: Q01DX001 (ip), vehicle: saline with Tween-80) was 95 % of control; the T/C (dose: 400.0 mg/kg/injection, schedule: Q01DX001 (ip), vehicle: saline with Tween-80) was 90 % of control.

Take `O=C1NC2(CCN(Cc3ccccc3)CC2)Nc2ccccc21`: the T/C reads like this: under setting [3], 99 % of control; under setting [4], 99 % of control; under setting [5], 97 % of control.

As to `CB1N(c2ccccc2)N=NN1C(C)(C)C`, the T/C by setting is: (dose: 15.0 mg/kg/injection, schedule: Q01DX005 (ip), vehicle: Klucel (hydroxypropylcellulose) (HPC)) 97 % of control; (dose: 30.0 mg/kg/injection, schedule: Q01DX005 (ip), vehicle: Klucel (hydroxypropylcellulose) (HPC)) 102 % of control; (dose: 60.0 mg/kg/injection, schedule: Q01DX005 (ip), vehicle: Klucel (hydroxypropylcellulose) (HPC)) 107 % of control; (dose: 120.0 mg/kg/injection, schedule: Q01DX005 (ip), vehicle: Klucel (hydroxypropylcellulose) (HPC)) 110 % of control; (dose: 240.0 mg/kg/injection, schedule: Q01DX005 (ip), vehicle: Klucel (hydroxypropylcellulose) (HPC)) 91 % of control.

On to `Cc1nn(CCO)c2nc(N)nc(N)c12`, for which the T/C reads like this: (dose: 100.0 mg/kg/injection, schedule: Q01DX001 (ip), vehicle: suspension in saline) 104 % of control; (dose: 200.0 mg/kg/injection, schedule: Q01DX001 (ip), vehicle: suspension in saline) 101 % of control; (dose: 400.0 mg/kg/injection, schedule: Q01DX001 (ip), vehicle: suspension in saline) 100 % of control.

With `COC(=O)CC1C=CC(OC)[C@@]2(C)C(=O)c3ccccc3C(=O)[C@@H]12` (some centres not stated), the T/C was 93 % of control under setting [7], 106 % of control under setting [16] and 101 % of control under setting [17].

For the compound `CC(=O)Oc1c2c(c(OC(C)=O)c3ccccc13)C(=O)C(O)C(C)O2` (configuration not stated), the T/C is, setting by setting: under setting [18], 102 % of control; (dose: 200.0 mg/kg/injection, schedule: Q01DX001 (ip), vehicle: Klucel (hydroxypropylcellulose) (HPC)) 96 % of control; (dose: 400.0 mg/kg/injection, schedule: Q01DX001 (ip), vehicle: Klucel (hydroxypropylcellulose) (HPC)) 100 % of control.

Regarding `O=c1cccccc1[O][Sn]([O]c1cccccc1=O)([c]1ccccc1)[c]1ccccc1`, the T/C is, setting by setting: (dose: 50.0 mg/kg/injection, schedule: Q01DX001 (ip), vehicle: Klucel (hydroxypropylcellulose) (HPC)) 104 % of control; under setting [18], 116 % of control.

Take `CC(=O)N=C(N)N`: the T/C reads like this: under setting [11], 103 % of control; under setting [12], 100 % of control; under setting [6], 99 % of control.

`CCOC(=O)c1nc(N(C)C)oc(=O)c1C`: the T/C is 101 % of control under setting [8], 97 % of control under setting [9] and 100 % of control under setting [10].
